The test system of one assay is human glioma U87 cells. In words: Tumor cell vacuolization (methuosis) scoring, U87. It counts as cell-based. On the set-up: key to Vacuolation Score: 5 scores were given when obvious vacuolization occurred at 10 nM; 4 scores at 31.6 nM; 3 scores at 100 nM; 2 scores at 316 nM; 1 score at 1000 nM; 0 score was given if no vacuolation occurred at any concentration. Particulars: for Vacuolation Score: 0.01-3.160 μM, microscope. As to the method:
(§1) FIG. 2. Vacuolization of tumor cells. 100 microliter culture medium (RPMI1640, 2 mmol glutamine, 10% fetal bovine serum) containing 10^3 human colon adenocarcinoma cells (HCT15) or human brain glioma cells (U87) and a solvent DMSO control or 100 nM #40 compound (L16) was plated into a 96-well cell culture plate, and cell morphological image was taken under a phase contrast microscope after cultured at 5% CO2 and 37° C. for 96 hours.
Some cells gradually became round and eventually bursted. These changes are consistent with the features of cell death by methuosis (FIG. 2).
In order to compare the ability of different compounds to cause cell vacuolization, 100 μL culture media (RPMI1640, 2 mmol glutamine, 10% fetal bovine serum) comprising 10^3 human glioma U87 cells and final concentrations of 0.01, 0.0316, 0.1, 0.316, 1.0, 3.160 μM respectively of the compounds to be tested were inoculated into a 96-well culture plate. After cultured at 5% CO2 and 37° C. for 96 hours, cell morphology was observed under a high-magnification microscope, and the ability of the compounds to cause cell vacuolization was scored. 5 scores were given when obvious vacuolization occurred at 10 nM, 4 scores at 31.6 nM, 3 scores at 100 nM, 2 scores at 316 nM, 1 score at 1000 nM, and 0 score was given if no vacuolation occurred at any concentration.

The next assay concerns the target T1, vimentin (Homo sapiens, UniProt P08670).
T1 construct: #79 compound used as a probe is bonded in situ to a target protein within a cell; endogenous in cells; host or cells: U87 human glioma cells
In words: Fishing of a target protein with a probe (photo-crosslinking, click reaction, MALDI-MS/MS). It counts as binding. The note with it: 0.5 μM probe, U87 cells, 3 hours, UV crosslinking. As to the method: FIG. 4 summarizes isolation and identification of a target protein corresponding to a compound causing cell vacuolization. The related steps are described briefly as follows.
An amount of human glioma cells U87 were plated in an 150 cm^2 Petri dish and cultured for 48 hours to reach 75-90% confluence. The culture medium was replaced with a prewarmed medium containing either 0.5 μM probe (#79 compound) or an equivalent volume of DMSO control. The cells continued in culture for 3 hours.
The cells were washed twice with a prechilled phosphate buffer saline (PBS). The cell-culture dish was placed on ice, and the cells were irradiated with ultraviolet light (an ultraviolet lamp having a power of 100 W, wavelength 350 nm, or 315-385 nm) through the top of the dish for 1 hour. Alternatively, a minimal amount of prechilled PBS (10 ml/150 cm^2) was added to the cell-culture dish which was then placed on an ultraviolet irradiator. The bottom of the cell-culture dish received irradiation for 30 minutes (wavelength 315-385 nm, time being adjusted in light of the ultraviolet power).
The cells were dissociated with trypsin, precipitated by centrifugation, and washed twice with PBS. […] The protein concentration of the cell lysate was measured using the Bradford method. […]

The test system of assay [1] is cell lines of human non-small cell lung cancer (H522). In words: In vitro antineoplastic activity, MTT experiment, H522. The note with it: H522 cells, 48 hours, highest concentration tested 31.6 μM (>30: inhibition rate <50%). It counts as cell-based. As for the experimental part:
(§2) MTT, RPM1640 culture medium, fetal bovine serum, 96-well plate, CO2 thermostatic incubator, American BIO-RAD680 microplate reader, cell lines of human non-small cell lung cancer (H522), and cell lines of human brain glioma (U87) were all obtained commercially.
(§3) (1) Cell inoculation: A single cell suspension was prepared with culture media supplemented with 10% fetal bovine serum, plated into a 96-well plate with 5000 cells per well, each well having a volume of 100 μL, and cultured overnight.
(§4) (2) Preparation of compound solutions: a DMSO stock solution of a compound was diluted on a sterile bench with a culture medium into 5 concentrations to be tested, wherein a double dilution was employed between two adjacent concentrations.
(§5) (3) The compound solutions of various concentrations were added into the 96-well plate cultured overnight, with 100 μL added per well, triplicated wells for each concentration. Since the peripheral wells can have edge effect and are susceptible to contamination, no cells or compounds were added thereto; instead, 100 μL culture solution was added as a blank. Additionally, 100% wells were set to contain the cells and 100 μL culture media without any compound. The plates were incubated in a thermostatic incubator at 37° C. for 48 hours.
(§6) (4) Staining: 10 μL MTT solution (5 mg/mL, prepared with PBS) was added into the 96-well plate for staining. After incubation for 4 hours, centrifugation was performed at 2500 rpm for 10 minutes. Then, a multiple pipette was used to suck the culture solution out of the wells carefully without sucking out the cells while the pipette tip faced downward. 150 μL DMSO was added and shaken on a shaker for 5-10 minutes. Crystals were allowed to dissolve fully, and an OD value for each well was measured using the microplate reader at 570 nm. The inhibition rate was calculated as follows: Inhibition rate (%)=(average OD value of 100% wells−average OD value of compound wells)/(average OD value of 100% wells−average OD value of blank wells)×100%

In assay [2] the test system is cell lines of human brain glioma (U87). In words: In vitro antineoplastic activity, MTT experiment, U87. It counts as cell-based. As for the experimental part: as §2, §3, §4, §5, §6
Assay [3] has as its system human colon adenocarcinoma cells (HCT15). In words: Tumor cell vacuolization, HCT15. It counts as cell-based. Particulars: 100 nM, 96 hours, phase contrast microscope. As for the experimental part:
as §1

The mark [4] stands for this setting: U87 cells, MTT, 48 hours, highest concentration tested 31.6 μM, read-out: IC50(μM) U87.
[5] abbreviates: ability to inhibit cell proliferation, U87 (FIG. 3), unit inferred, read-out: IC50.

Where two headings read alike, the source gives them in different places.

T1 sequence (P08670 whole entry): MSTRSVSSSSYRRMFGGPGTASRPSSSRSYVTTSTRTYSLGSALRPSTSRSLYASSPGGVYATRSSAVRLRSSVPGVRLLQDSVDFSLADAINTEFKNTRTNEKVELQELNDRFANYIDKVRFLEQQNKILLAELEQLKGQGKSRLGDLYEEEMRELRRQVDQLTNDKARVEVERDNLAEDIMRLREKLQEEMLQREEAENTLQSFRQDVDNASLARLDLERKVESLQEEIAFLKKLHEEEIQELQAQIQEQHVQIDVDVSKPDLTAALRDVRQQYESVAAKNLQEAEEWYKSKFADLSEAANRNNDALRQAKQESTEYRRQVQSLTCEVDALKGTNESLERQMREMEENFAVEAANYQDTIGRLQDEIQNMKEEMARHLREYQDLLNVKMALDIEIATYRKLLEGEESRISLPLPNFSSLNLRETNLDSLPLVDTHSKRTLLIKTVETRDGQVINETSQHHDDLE

With `C#CCCC1(CCNC(=O)c2ccc(NC(=O)Nc3ccc(Nc4nc(/C=C/c5ccccc5)nc(N5CCOCC5)n4)cc3)cc2)N=N1` [compound 79, (E)-N-(2-(3-(1-butyn-4-yl)-3H-diaziridin-3-yl)ethyl)-4-(3-(4-((4-(morpholin-1-yl)-6-styrenyl-1,3,5-triazin-2-yl)amino)phenyl)urea)benzamide], the “Vacuolation Score” value in the assay with human glioma U87 cells (U87 cells, 96 hours) is 4.5. Moreover, the “ability to cause cell vacuolization (in words)” value in the assay on human glioma U87 cells (U87 cells, among the compounds tested) is “same cell phenotype”. Further, the “target protein of the compound” value at vimentin was “vimentin”.
Regarding `CN(C)C(=O)c1ccc(NC(=O)Nc2ccc(Nc3nc(/C=C/c4ccccc4)nc(N4CCOCC4)n3)cc2)cc1` [L29, (E)-N,N-dimethyl-4-(3-(4-(4-(morpholin-1-yl)-6-styrenyl-1,3,5-triazinyl-2-amino)phenyl)urea)benzamide], the “Vacuolation Score” value with human glioma U87 cells (U87 cells, 96 hours) stood at 3.5. The IC50 (in general, the concentration at which inhibition is half-maximal) was determined as 6.51 ± 0.94 µM in assay [1], 0.53 ± 0.02 µM in assay [2] (setting [4]) and 0.75 µM in assay [2] (setting [5]).
For `O=C(Nc1ccc(Cl)cc1)Nc1cccc(Nc2nc(/C=C/c3cccc(Cl)c3)nc(N3CCOCC3)n2)c1` [L25, (E)-1-(4-chlorophenyl)-3-(3-(4-(morpholin-1-yl)-6-(3-chlorostyrenyl)-1,3,5-triazinyl-2-amino)phenyl)urea] the same measures were 0, 2.53 ± 0.28 µM, 2.2 ± 0.21 µM and 2.2 µM.
As for `CN1CCN(c2nc(/C=C/c3cccc(Cl)c3)nc(Nc3cccc(NC(=O)Nc4ccc(Cl)cc4)c3)n2)CC1` [L26, (E)-1-(4-chlorophenyl)-3-(3-(4-(4-methylpiperazin-1-yl)-6-(3-chlorostyrenyl)-1,3,5-triazinyl-2-amino)phenyl)urea], the “Vacuolation Score” value in the assay with human glioma U87 cells (U87 cells, 96 hours) was 0. Also, the IC50 in assay [1] was determined as 5.48 ± 0.76 µM; in assay [2] (setting [4]), 3.95 ± 0.67 µM; in assay [2] (setting [5]), 3.94 µM.
Regarding `O=C(Nc1ccc(Nc2nc(/C=C/c3ccccc3)nc(N3CCOCC3)n2)cc1)Nc1ccc(C(=O)NCCN2CCOCC2)cc1` [L37, (E)-N-(2-(morpholin-1-yl)ethyl)-4-(3-(4-(4-(morpholin-1-yl)-6-styrenyl-1,3,5-triazinyl-2-amino)phenyl)urea)benzamide], the “Vacuolation Score” value in the assay on human glioma U87 cells (U87 cells, 96 hours) turned out to be 3.5. The values for the IC50 in assay [1], in assay [2] (setting [4]) and in assay [2] (setting [5]) were 5.19 ± 1.48 µM, 0.55 ± 0.05 µM and 0.82 µM, respectively.
As for `O=C(Nc1ccc(Cl)cc1)Nc1ccc(Nc2nc(/C=C/c3cccc([N+](=O)[O-])c3)nc(N3CCOCC3)n2)cc1` [L16, (E)-1-(4-chlorophenyl)-3-(4-(4-(morpholin-1-yl)-6-(3-nitrostyrenyl)-1,3,5-triazinyl-2-amino)phenyl)urea], in the assay with human glioma U87 cells (100 nM, 96 hours, phase contrast microscope), the “vacuolization of U87 cells” value is reported as “significant vaculization”. Also, the “Vacuolation Score” value in the assay on human glioma U87 cells (U87 cells, 96 hours) is 4 (4 scores at 31.6 nM). Also, the “vacuolization of HCT15 cells” value in assay [3] is listed as “significant vaculization”. Also, the IC50 came to 0.78 ± 0.04 µM in assay [1], 1.71 ± 0.06 µM in assay [2] (setting [4]) and 1.71 µM in assay [2] (setting [5]).

Source of the values: patent US11390591B2, “2,4,6-trisubstituted s-triazine compound, preparation method therefor, and use thereof” (Aluda Pharmaceuticals, Inc., priority 2016, dated 2022).
